Data reported in ChEMBL document CHEMBL4507277.

How the values were obtained:
Details in all cases: Compound concentration 1000.0 nM
[1] = target: Serine/threonine-protein kinase TNNI3K (Homo sapiens) (UniProt Q59H18)
[2] = system: Tyrosine-protein kinase ABL1 (Homo sapiens), P00519 [F317L]
[3] = system: Receptor-type tyrosine-protein kinase FLT3 (Homo sapiens), P36888 [K663Q]
[4] = target: 1-phosphatidylinositol 3-phosphate 5-kinase (Homo sapiens) (UniProt Q9Y2I7)
[5] = target: Cyclin-dependent kinase 7 (Homo sapiens) (UniProt P50613)
[6] = target: NUAK family SNF1-like kinase 1 (Homo sapiens) (UniProt O60285)
[7] = target: Non-receptor tyrosine-protein kinase TYK2 (Homo sapiens) (UniProt P29597)
[8] = system: Proto-oncogene tyrosine-protein kinase receptor Ret (Homo sapiens), P07949 [M918T]
[9] = target: Receptor-type tyrosine-protein kinase FLT3 (Homo sapiens) (UniProt P36888)
[10] = target: Ribosomal protein S6 kinase alpha-2 (Homo sapiens) (UniProt Q15349)
[11] = target: RAF proto-oncogene serine/threonine-protein kinase (Homo sapiens) (UniProt P04049)
[12] = target: Serine/threonine-protein kinase 35 (Homo sapiens) (UniProt Q8TDR2)
[13] = target: Leucine-rich repeat serine/threonine-protein kinase 2 (Homo sapiens) (UniProt Q5S007)
[14] = target: Testis-specific serine/threonine-protein kinase 3 (Homo sapiens) (UniProt Q96PN8)
[15] = target: Serine/threonine-protein kinase 32A (Homo sapiens) (UniProt Q8WU08)
[16] = target: Dual specificity testis-specific protein kinase 1 (Homo sapiens) (UniProt Q15569)
[17] = target: Maternal embryonic leucine zipper kinase (Homo sapiens) (UniProt Q14680)
[18] = target: Ephrin type-A receptor 2 (Homo sapiens) (UniProt P29317)
[19] = target: Protein kinase C eta type (Homo sapiens) (UniProt P24723)
[20] = target: Serine/threonine-protein kinase 4 (Homo sapiens) (UniProt Q13043)
[21] = target: Calcium-dependent protein kinase 1 (Plasmodium falciparum) (UniProt P62344)
[22] = system: Proto-oncogene tyrosine-protein kinase receptor Ret (Homo sapiens), P07949 [V804L]
[23] = target: Inhibitor of nuclear factor kappa-B kinase subunit beta (Homo sapiens) (UniProt O14920)
[24] = target: Dual specificity mitogen-activated protein kinase kinase 6 (Homo sapiens) (UniProt P52564)
[25] = target: Cyclin-dependent kinase-like 2 (Homo sapiens) (UniProt Q92772)
[26] = system: Proto-oncogene tyrosine-protein kinase receptor Ret (Homo sapiens), P07949 [V804M]
[27] = target: Serine/threonine-protein kinase OSR1 (Homo sapiens) (UniProt O95747)
[28] = target: Interleukin-1 receptor-associated kinase 3 (Homo sapiens) (UniProt Q9Y616)
[29] = system: Tyrosine-protein kinase ABL1 (Homo sapiens), P00519 [H396P]
[30] = target: G protein-coupled receptor kinase 3 (Homo sapiens) (UniProt P35626)
[31] = target: Protein-tyrosine kinase 6 (Homo sapiens) (UniProt Q13882)
[32] = target: Serine/threonine-protein kinase SBK1 (Homo sapiens) (UniProt Q52WX2)
[33] = target: Fibroblast growth factor receptor 4 (Homo sapiens) (UniProt P22455)
[34] = target: Misshapen-like kinase 1 (Homo sapiens) (UniProt Q8N4C8)
[35] = target: Myosin light chain kinase, smooth muscle (Homo sapiens) (UniProt Q15746)
[36] = target: Ribosomal protein S6 kinase alpha-1 (Homo sapiens) (UniProt Q15418)
[37] = target: Serine/threonine-protein kinase D2 (Homo sapiens) (UniProt Q9BZL6)
[38] = system: Tyrosine-protein kinase ABL1 (Homo sapiens), P00519 [H396P]; remark: listed apart in the source
[39] = target: TGF-beta receptor type-1 (Homo sapiens) (UniProt P36897)
[40] = target: Cyclin-dependent kinase-like 1 (Homo sapiens) (UniProt Q00532)
[41] = target: Epidermal growth factor receptor (Homo sapiens) (UniProt P00533)
[42] = target: Protein kinase C theta type (Homo sapiens) (UniProt Q04759)
[43] = target: Calcium/calmodulin-dependent protein kinase type 1B (Homo sapiens) (UniProt Q6P2M8)
[44] = target: SRSF protein kinase 1 (Homo sapiens) (UniProt Q96SB4)
[45] = target: Megakaryocyte-associated tyrosine-protein kinase (Homo sapiens) (UniProt P42679)

Serine/threonine-protein kinase SBK1 (Homo sapiens), sequence (Q52WX2 whole entry): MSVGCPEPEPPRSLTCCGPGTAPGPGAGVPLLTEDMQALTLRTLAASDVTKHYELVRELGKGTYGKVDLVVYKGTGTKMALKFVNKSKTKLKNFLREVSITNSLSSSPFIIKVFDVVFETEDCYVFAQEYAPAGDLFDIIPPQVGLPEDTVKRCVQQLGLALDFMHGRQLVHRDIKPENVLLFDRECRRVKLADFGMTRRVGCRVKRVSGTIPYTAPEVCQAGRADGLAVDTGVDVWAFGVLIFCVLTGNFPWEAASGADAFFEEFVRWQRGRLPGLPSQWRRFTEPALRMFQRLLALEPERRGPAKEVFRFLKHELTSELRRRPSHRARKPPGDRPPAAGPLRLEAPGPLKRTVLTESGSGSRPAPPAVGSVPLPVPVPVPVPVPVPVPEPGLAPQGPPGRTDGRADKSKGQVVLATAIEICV
Dual specificity testis-specific protein kinase 1 (Homo sapiens), sequence (Q15569 whole entry, looked up): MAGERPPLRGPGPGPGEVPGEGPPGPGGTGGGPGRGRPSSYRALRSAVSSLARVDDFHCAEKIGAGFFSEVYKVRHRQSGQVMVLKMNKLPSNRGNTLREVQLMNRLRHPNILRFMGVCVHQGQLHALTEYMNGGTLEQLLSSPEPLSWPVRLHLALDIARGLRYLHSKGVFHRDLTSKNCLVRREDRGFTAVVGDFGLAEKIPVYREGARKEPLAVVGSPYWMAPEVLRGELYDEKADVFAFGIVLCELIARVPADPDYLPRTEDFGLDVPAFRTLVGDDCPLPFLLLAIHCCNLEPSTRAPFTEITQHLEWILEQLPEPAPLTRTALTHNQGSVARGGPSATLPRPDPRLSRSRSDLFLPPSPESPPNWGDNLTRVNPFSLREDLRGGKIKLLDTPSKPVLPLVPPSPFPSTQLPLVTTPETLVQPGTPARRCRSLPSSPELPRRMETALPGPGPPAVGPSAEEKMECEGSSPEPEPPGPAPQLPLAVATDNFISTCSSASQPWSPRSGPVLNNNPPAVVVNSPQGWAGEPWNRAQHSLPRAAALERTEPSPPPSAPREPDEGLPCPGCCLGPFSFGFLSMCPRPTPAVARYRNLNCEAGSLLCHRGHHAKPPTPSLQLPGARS
Non-receptor tyrosine-protein kinase TYK2 (Homo sapiens), sequence (P29597 whole entry): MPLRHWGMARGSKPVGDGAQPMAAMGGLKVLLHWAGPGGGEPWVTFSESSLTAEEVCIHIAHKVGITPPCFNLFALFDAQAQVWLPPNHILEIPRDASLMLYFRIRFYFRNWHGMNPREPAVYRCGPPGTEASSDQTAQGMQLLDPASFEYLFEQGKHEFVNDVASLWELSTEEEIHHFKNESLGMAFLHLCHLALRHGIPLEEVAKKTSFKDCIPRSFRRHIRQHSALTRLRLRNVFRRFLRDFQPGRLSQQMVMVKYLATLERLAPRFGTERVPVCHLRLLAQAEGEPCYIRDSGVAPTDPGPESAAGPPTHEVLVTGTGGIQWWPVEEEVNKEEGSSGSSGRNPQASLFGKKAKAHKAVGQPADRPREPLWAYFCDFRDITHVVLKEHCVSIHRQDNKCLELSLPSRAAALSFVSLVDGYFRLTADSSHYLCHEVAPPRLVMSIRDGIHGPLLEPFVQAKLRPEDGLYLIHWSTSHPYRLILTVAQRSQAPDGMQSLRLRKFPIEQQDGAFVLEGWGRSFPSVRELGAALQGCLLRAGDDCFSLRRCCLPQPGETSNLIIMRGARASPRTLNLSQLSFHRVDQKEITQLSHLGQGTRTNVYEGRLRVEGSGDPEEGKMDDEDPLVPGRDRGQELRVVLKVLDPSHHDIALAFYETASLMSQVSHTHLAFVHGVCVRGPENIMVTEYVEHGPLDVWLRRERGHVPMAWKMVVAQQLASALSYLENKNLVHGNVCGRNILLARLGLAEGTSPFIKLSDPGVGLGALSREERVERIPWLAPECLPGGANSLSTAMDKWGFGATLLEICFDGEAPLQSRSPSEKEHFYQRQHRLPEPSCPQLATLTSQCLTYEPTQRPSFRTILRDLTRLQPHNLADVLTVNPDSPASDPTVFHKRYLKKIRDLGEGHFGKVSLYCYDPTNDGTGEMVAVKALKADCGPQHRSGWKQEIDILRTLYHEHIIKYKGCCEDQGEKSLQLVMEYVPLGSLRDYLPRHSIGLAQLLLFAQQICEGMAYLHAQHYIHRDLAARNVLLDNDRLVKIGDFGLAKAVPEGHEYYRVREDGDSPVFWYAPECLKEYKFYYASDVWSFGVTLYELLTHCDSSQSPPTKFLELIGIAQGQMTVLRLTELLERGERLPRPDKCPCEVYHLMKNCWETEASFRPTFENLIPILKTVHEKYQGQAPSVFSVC
Interleukin-1 receptor-associated kinase 3 (Homo sapiens), sequence (Q9Y616 whole entry): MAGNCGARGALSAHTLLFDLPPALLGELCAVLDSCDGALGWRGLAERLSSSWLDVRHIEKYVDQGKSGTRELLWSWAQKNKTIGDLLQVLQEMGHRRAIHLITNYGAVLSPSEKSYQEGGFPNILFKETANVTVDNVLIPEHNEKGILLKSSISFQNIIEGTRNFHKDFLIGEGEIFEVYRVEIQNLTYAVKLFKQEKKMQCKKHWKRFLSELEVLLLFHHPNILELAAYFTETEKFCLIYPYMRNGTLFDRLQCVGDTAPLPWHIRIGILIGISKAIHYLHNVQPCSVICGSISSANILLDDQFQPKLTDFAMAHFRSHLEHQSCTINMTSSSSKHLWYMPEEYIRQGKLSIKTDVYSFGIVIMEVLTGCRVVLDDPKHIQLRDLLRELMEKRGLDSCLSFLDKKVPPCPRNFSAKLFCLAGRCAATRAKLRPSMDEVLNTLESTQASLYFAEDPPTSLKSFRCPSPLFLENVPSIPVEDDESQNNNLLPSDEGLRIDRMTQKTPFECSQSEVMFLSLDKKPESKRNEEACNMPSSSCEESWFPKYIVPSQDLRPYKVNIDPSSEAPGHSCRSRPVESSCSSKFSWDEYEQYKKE
Calcium-dependent protein kinase 1 (Plasmodium falciparum), sequence (P62344 2-524 limits assumed): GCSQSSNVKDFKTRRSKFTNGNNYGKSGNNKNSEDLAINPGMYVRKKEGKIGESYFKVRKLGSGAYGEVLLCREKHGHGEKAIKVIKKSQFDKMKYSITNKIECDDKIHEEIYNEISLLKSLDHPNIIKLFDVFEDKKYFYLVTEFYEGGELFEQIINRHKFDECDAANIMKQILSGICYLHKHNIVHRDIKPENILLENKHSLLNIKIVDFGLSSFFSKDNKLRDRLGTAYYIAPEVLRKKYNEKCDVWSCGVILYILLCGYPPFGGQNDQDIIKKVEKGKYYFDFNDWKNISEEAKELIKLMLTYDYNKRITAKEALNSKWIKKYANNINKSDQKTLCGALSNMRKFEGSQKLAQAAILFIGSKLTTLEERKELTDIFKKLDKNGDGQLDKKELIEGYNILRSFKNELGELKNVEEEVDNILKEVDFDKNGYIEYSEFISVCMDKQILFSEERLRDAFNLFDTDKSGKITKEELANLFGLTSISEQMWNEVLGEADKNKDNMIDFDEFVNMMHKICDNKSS
Misshapen-like kinase 1 (Homo sapiens), sequence (Q8N4C8 whole entry, looked up): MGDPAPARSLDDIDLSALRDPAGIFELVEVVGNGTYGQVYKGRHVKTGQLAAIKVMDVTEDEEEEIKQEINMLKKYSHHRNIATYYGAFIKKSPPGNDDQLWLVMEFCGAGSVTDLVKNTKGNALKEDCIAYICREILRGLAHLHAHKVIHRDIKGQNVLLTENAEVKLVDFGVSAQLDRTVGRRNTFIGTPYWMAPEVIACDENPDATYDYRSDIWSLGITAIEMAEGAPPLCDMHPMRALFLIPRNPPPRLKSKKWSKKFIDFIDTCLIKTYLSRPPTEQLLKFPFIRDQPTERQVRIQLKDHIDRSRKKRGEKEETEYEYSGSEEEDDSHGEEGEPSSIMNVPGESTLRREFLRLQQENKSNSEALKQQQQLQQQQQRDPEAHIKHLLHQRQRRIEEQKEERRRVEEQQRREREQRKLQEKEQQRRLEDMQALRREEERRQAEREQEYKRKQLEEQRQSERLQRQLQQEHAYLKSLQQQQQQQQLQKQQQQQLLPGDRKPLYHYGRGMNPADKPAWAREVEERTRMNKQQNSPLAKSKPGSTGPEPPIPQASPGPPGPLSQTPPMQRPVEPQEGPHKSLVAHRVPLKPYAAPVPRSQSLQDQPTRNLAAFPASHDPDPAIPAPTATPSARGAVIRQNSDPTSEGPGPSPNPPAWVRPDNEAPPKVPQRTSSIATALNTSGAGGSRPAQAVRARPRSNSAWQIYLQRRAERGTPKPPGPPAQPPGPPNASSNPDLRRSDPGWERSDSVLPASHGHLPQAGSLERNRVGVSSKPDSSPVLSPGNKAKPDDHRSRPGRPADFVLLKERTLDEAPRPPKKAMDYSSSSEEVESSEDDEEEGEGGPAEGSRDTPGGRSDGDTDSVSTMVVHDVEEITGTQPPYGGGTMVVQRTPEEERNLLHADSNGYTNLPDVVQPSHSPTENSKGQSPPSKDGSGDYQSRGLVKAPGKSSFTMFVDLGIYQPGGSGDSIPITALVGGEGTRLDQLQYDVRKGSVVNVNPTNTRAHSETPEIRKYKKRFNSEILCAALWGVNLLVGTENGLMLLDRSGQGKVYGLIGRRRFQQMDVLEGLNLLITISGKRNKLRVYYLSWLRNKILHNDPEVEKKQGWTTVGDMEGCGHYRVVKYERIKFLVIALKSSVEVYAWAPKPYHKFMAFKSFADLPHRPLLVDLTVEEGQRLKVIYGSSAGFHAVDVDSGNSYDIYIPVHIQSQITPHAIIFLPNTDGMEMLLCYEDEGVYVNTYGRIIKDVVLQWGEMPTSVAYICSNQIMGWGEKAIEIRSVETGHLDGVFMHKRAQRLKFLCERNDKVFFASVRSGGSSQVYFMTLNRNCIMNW
Dual specificity mitogen-activated protein kinase kinase 6 (Homo sapiens), sequence (P52564 whole entry): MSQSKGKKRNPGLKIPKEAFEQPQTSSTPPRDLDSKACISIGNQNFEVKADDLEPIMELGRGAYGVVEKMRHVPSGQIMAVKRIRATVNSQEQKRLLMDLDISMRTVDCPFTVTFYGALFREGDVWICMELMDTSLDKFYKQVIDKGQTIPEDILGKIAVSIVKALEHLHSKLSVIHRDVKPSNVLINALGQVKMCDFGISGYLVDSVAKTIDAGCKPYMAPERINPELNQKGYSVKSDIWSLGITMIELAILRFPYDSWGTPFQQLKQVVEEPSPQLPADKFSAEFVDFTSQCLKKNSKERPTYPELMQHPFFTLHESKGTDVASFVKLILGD

SMILES: CCS(=O)(=O)c1cc2cc(C[C@@](O)(CC(C)(C)c3ccc(F)cc3C(N)=O)C(F)(F)F)[nH]c2cn1
- residual activity [1]: 100%
- residual activity [2]: 90%
- residual activity [3]: 83%
- residual activity [4]: 69%
- residual activity [5]: 99%
- residual activity [6]: 77%
- residual activity [7]: 82%
- residual activity [8]: 98%
- residual activity [9]: 97%
- residual activity [10]: 0%
- residual activity [11]: 81%
- residual activity [12]: 100%
- residual activity [13]: 42%
- residual activity [14]: 96%
- residual activity [15]: 77%
- residual activity [16]: 77%
- residual activity [17]: 100%
- residual activity [18]: 67%
- residual activity [19]: 100%
- residual activity [20]: 100%
- residual activity [21]: 99%
- residual activity [22]: 96%
- residual activity [23]: 83%
- residual activity [24]: 84%
- residual activity [25]: 90%
- residual activity [26]: 74%
- residual activity [27]: 88%
- residual activity [28]: 67%
- residual activity [29]: 99%
- residual activity [30]: 73%
- residual activity [31]: 97%
- residual activity [32]: 94%
- residual activity [33]: 100%
- residual activity [34]: 79%
- residual activity [35]: 93%
- residual activity [36]: 0%
- residual activity [37]: 89%
- residual activity [38]: 99%
- residual activity [39]: 100%
- residual activity [40]: 78%
- residual activity [41]: 96%
- residual activity [42]: 97%
- residual activity [43]: 85%
- residual activity [44]: 90%
- residual activity [45]: 100%

SMILES: CCS(=O)(=O)c1cc2cc(C[C@](O)(CC(C)(C)c3ccc(F)cc3C(N)=O)C(F)(F)F)[nH]c2cn1
- residual activity [1]: 80%
- residual activity [2]: 100%
- residual activity [3]: 100%
- residual activity [4]: 97%
- residual activity [5]: 95%
- residual activity [6]: 100%
- residual activity [7]: 100%
- residual activity [8]: 100%
- residual activity [9]: 87%
- residual activity [10]: 81%
- residual activity [11]: 83%
- residual activity [12]: 100%
- residual activity [13]: 100%
- residual activity [14]: 100%
- residual activity [15]: 84%
- residual activity [16]: 100%
- residual activity [17]: 100%
- residual activity [18]: 81%
- residual activity [19]: 94%
- residual activity [20]: 100%
- residual activity [21]: 100%
- residual activity [22]: 100%
- residual activity [23]: 91%
- residual activity [24]: 80%
- residual activity [25]: 93%
- residual activity [26]: 100%
- residual activity [27]: 90%
- residual activity [28]: 96%
- residual activity [29]: 100%
- residual activity [30]: 100%
- residual activity [31]: 100%
- residual activity [32]: 87%
- residual activity [33]: 72%
- residual activity [34]: 89%
- residual activity [35]: 96%
- residual activity [36]: 87%
- residual activity [37]: 96%
- residual activity [38]: 89%
- residual activity [39]: 100%
- residual activity [40]: 81%
- residual activity [41]: 81%
- residual activity [42]: 87%
- residual activity [43]: 77%
- residual activity [44]: 83%
- residual activity [45]: 100%
